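Cultured in 96-well plates, cells were exposed to test compound for 48 hours across five concentrations. Here, GI50 denotes the concentration required for 50% inhibition of growth. TGI marks complete inhibition of growth.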
Tests used:
Test in all cases: NCI-60 cell line screen, 48 h
[1] = system: NCI/ADR-RES ovarian
[2] = system: HOP-92 NSCLC
[3] = system: MOLT-4 leukemia
[4] = system: OVCAR-4 ovarian
[5] = system: SNB-78 CNS
[6] = system: DMS 273 small cell lung
[7] = system: MCF7 breast
[8] = system: SK-MEL-28 melanoma
[9] = system: UACC-257 melanoma
[10] = system: EKVX NSCLC
[11] = system: U251 CNS
[12] = system: HCT-15 colon
[13] = system: A498 renal

Structure (SMILES) | TGI [1] [µM] | TGI [2] [µM] | TGI [3] [µM] | TGI [4] [µM] | TGI [5] [µM] | TGI [6] [µM] | TGI [7] [µM] | TGI [8] [µM] | TGI [9] [µM] | TGI [10] [µM] | TGI [11] [µM] | TGI [12] [µM] | TGI [13] [µM] | GI50 [8] [µM] | GI50 [1] [µM] | GI50 [10] [µM] | GI50 [2] [µM] | GI50 [3] [µM] | GI50 [11] [µM] | GI50 [12] [µM]
COC(=O)C1c2cc3c(c(O)c2C(O)CC1(C)O)C(=O)c1c(O)cc2c(c1C3=O)OC1OC2(C)C(O)C(N(C)C)C1O (configuration not stated) | 3.05 | > 76.6 | > 100 | > 100 | > 100 | > 100 | 2.63 | – | – | – | – | – | – | – | – | – | – | – | – | –
CCN(CC)CCO[Si](OCCN(CC)CC)(OCCN(CC)CC)OCCN(CC)CC | – | – | – | > 100 | – | > 100 | – | > 100 | > 100 | > 100 | > 100 | > 100 | – | – | – | – | – | – | – | –
CCOC(=O)Cn1c(=O)c(C)cn(COCCO)c1=O | > 100 | > 100 | > 100 | > 100 | – | – | > 100 | > 100 | > 100 | > 100 | > 100 | – | > 100 | – | – | – | – | – | – | –
CCOC(C)OC1CC(n2cc(C)c(=O)[nH]c2=O)OC1CO (configuration not stated) | – | > 100 | > 100 | > 100 | > 100 | > 100 | – | > 100 | > 100 | > 100 | > 100 | > 100 | > 100 | – | – | – | – | – | – | –
O=C(CCC1CCCCN1)Nc1ccc2c(c1)C(=O)c1ccc(NC(=O)CCN3CCCCC3)cc1C2=O (configuration not stated) | – | 5.98 | – | 5.38 | > 100 | 7.55 | – | 3.77 | 2.94 | – | 23.8 | – | 16.2 | – | – | – | – | – | – | –
CC1OC(=O)C(C(C)C)NC(=O)C(C(C)C)OC(=O)C(C(C)C)NC(=O)C(C)OC(=O)C(C(C)C)NC(=O)C(C(C)C)OC(=O)C(C(C)C)NC(=O)C(C)OC(=O)C(C(C)C)NC(=O)C(C(C)C)OC(=O)C(C(C)C)NC1=O (configuration not stated) | 0.117 | – | 0.00858 | – | 4.46 | 0.0141 | 0.0686 | 5.63 | 0.145 | – | 1.05 | 4.53 | 0.0383 | < 0.0001 | 0.0129 | < 0.0001 | < 0.0001 | < 0.0001 | < 0.0001 | 0.000358
CN1CN(C(=O)N2CN(C)C(=O)N(C)C2)CN(C)C1=O | – | – | > 100 | – | > 100 | – | – | > 100 | > 100 | > 100 | – | > 100 | > 100 | – | – | – | – | – | – | –

From PubChem BioAssay (NCI)
